{"source": "patent US20190381128A1", "about": "“GLP-1 Secretagogue and Composition” (MORINAGA MILK INDUSTRY CO., LTD., priority 2017, published 2019)", "key": {"GLUTag cells [1]": {"test_system": "GLUTag cells", "experiment": "GLP-1 secretion cell assay using GLUTag cells (ELISA of culture supernatant)", "format": "cell-based, mouse", "details": "for GLP-1 secretion stimulating activity on GLUTag cells, ratio to blank group: Table 8; for GLP-1 secretion stimulating activity in comparison with the blank group: Dunnett t-test"}, "GLUTag cells [2]": {"test_system": "GLUTag cells", "experiment": "GLP-1 secretion cell assay using GLUTag cells (ELISA of culture supernatant)", "format": "cell-based, mouse", "procedure": "Each sample was dissolved in Milli Q water and a solution having a protein concentration of 7.5 mg/mL was prepared by the Bradford method. The solution was adjusted to pH 2.0, which is the same pH as in the human stomach, with a 1 mol/L hydrochloric acid, then pepsin (Pep, Sigma-Aldrich; in 1 mM HCL) was added in an amount of 1/12.5 (w/w) relative to the proteins, and the mixture was shaken in a 37° C. thermostat at 140 rpm for 30 minutes. Then, the pH was adjusted to 7.0 with a 1 mol/L sodium hydrogen carbonate solution to stop the digestion reaction of pepsin. Subsequently, pancreatin (Pan, Sigma-Aldrich; in 0.1 M NaHCO3) was added in an amount of 1/62.5 (w/w) relative to the proteins, and the mixture was shaken in a 37° C. thermostat at 140 rpm for a desired time (5 minutes, 10 minutes, 15 minutes, 30 minutes, 45 minutes, 60 minutes, 120 minutes, or overnight). After that, with heat at 90° C. for 3 minutes, the digestion reaction by pancreatin was stopped. The solution after digestion was lyophilized and stored at 4° C. The digestion reactions simulated the state of digestion that a micellar casein and various casein materials taken in the body undergo in the gastrointestinal tract.\nGLUTag cells (see, for example, Food Funct., 2015, vol. 6, p. 2525-2534) were cultured on a culture medium containing 10% fetal bovine serum (Dulbecco's modified Eagle's medium (DMEM), GIBCO) at 37° C. in a 5% CO2 incubator for 2 to 3 days into a subconfluent layer. Then, the culture medium was removed, and the cells were suspended twice with HEPES buffer (20 mM HEPES(Sigma), 140 mM NaCl (Wako), 4.5 mM KCl (Wako), 10 mM Glucose (Wako), 1.2 mM MgCl2 (Wako), 1.2 mM CaCl2 (Wako), 0.1% BSA (Sigma), pH7.4).\nThe lyophilized sample of (1) was dissolved with HEPES buffer so as to give a concentration of 5 mg/mL, and 80 μL of the resulting solution was added to each well of a 48-well culture plate containing the GLUTag cells cultured therein and the cells were incubated at 37° C. for […]. After the treatment, the culture supernatant was collected and was subjected to centrifugation at 800 g at 4° C. for 5 minutes and the resulting supernatant was stored at −80° C. as an ELISA measurement sample. The amount of GLP-1 in the supernatant was measured using ELISA (Millipore) according to a protocol recommended by the manufacturer. The amount of GLP-1 was represented as a relative amount to 100% of that of a group treated only with HEPES buffer (blank group). The number of samples was always three (n=3).\nThe lyophilized sample of (1) was subjected to an assay using GLUTag cells by the same method and conditions as in Example 1 and the amount of GLP-1 secreted was represented as a relative amount to 100% of that of a blank group. The number of samples was always three (n=3).\nThe lyophilized sample of (1) was subjected to an assay using GLUTag cells by the same method and conditions as in Example 1, and the amount of GLP-1 secreted was measured as a relative amount to 100% of that of a blank group, provided that the digested product of the κ-casein material sample was diluted at a concentration of 5 mg/mL or 0.5 mg/mL in dissolution in HEPES buffer. A glycomacropeptide (CGMP: from Arla) was also provided as a sample and the standard sample was dissolved as it was in HEPES buffer at a concentration of […]. In the assay, GLUTag cells obtained through depolarizing stimulation with 70 mM KCl were used as a positive control. The amount of GLP-1 secreted was represented as a relative amount to 100% of that of a blank group. The number of samples was always three or four (n=3 to 4).\nThe lyophilized sample of (1) was subjected to an assay using GLUTag cells by the same method and conditions as in Example 1, and the amount of GLP-1 secreted was represented as a relative amount to 100% of that of a blank group. The number of samples was always three (n=3). […]"}, "[3]": {"details": "synthesized peptide 1 mM in HEPES buffer"}, "[4]": {"details": "synthesized peptide 5 mM in HEPES buffer"}}, "data": [{"substance": "GPVRGPFPIIV (peptide 1) [SEQ ID NO: 1, peptide fragment detected in micellar casein digested product, synthesized]", "values": [{"measurement": "GLP-1 secretion stimulating activity on GLUTag cells, ratio to blank group", "setting": "GLUTag cells [1]; [3]", "result": 126.0, "unit": "%"}, {"measurement": "GLP-1 secretion stimulating activity on GLUTag cells, ratio to blank group", "setting": "GLUTag cells [1]; [4]", "result": "254.8 (*) %"}, {"measurement": "GLP-1 secretion stimulating activity in comparison with the blank group", "setting": "GLUTag cells [1]; peptide 5 mM", "result": "significantly higher"}]}, {"substance": "Glycomacropeptide", "values": [{"measurement": "GLP-1 secretion stimulating activity on GLUTag cells, ratio to blank group", "setting": "GLUTag cells [2]; Table 4, non-degraded (glycomacropeptide dissolved as it was in HEPES buffer)", "result": 81.8, "unit": "%"}]}, {"substance": "HIQKEDVPSE (peptide 2) [SEQ ID NO: 2, peptide fragment detected in micellar casein digested product, synthesized]", "values": [{"measurement": "GLP-1 secretion stimulating activity on GLUTag cells, ratio to blank group", "setting": "GLUTag cells [1]; [3]", "result": 141.8, "unit": "%"}, {"measurement": "GLP-1 secretion stimulating activity on GLUTag cells, ratio to blank group", "setting": "GLUTag cells [1]; [4]", "result": "200.5 (*) %"}, {"measurement": "GLP-1 secretion stimulating activity in comparison with the blank group", "setting": "GLUTag cells [1]; peptide 5 mM", "result": "significantly higher"}]}, {"substance": "HQGLPQEVLNE (peptide 4) [SEQ ID NO: 4, peptide fragment detected in micellar casein digested product, synthesized]", "values": [{"measurement": "GLP-1 secretion stimulating activity on GLUTag cells, ratio to blank group", "setting": "GLUTag cells [1]; [3]", "result": 158.9, "unit": "%"}, {"measurement": "GLP-1 secretion stimulating activity on GLUTag cells, ratio to blank group", "setting": "GLUTag cells [1]; [4]", "result": 115.6, "unit": "%"}]}, {"substance": "LEDSPEVIESPPEINT (peptide 5) [SEQ ID NO: 5, peptide fragment detected in micellar casein digested product, synthesized]", "values": [{"measurement": "GLP-1 secretion stimulating activity on GLUTag cells, ratio to blank group", "setting": "GLUTag cells [1]; [3]", "result": 133.9, "unit": "%"}, {"measurement": "GLP-1 secretion stimulating activity on GLUTag cells, ratio to blank group", "setting": "GLUTag cells [1]; [4]", "result": 136.9, "unit": "%"}]}, {"substance": "SRYPSYGLN (peptide 6) [SEQ ID NO: 6, peptide fragment found in both micellar casein hydrolysate and casein hydrolysate, synthesized]", "values": [{"measurement": "GLP-1 secretion stimulating activity on GLUTag cells, ratio to blank group", "setting": "GLUTag cells [1]; [3]", "result": 123.6, "unit": "%"}, {"measurement": "GLP-1 secretion stimulating activity on GLUTag cells, ratio to blank group", "setting": "GLUTag cells [1]; [4]", "result": 149.7, "unit": "%"}]}, {"substance": "YPVEPFTESQ (peptide 3) [SEQ ID NO: 3, peptide fragment detected in micellar casein digested product, synthesized]", "values": [{"measurement": "GLP-1 secretion stimulating activity on GLUTag cells, ratio to blank group", "setting": "GLUTag cells [1]; [3]", "result": "168.7 (*) %"}, {"measurement": "GLP-1 secretion stimulating activity on GLUTag cells, ratio to blank group", "setting": "GLUTag cells [1]; [4]", "result": 143.5, "unit": "%"}, {"measurement": "GLP-1 secretion stimulating activity in comparison with the blank group", "setting": "GLUTag cells [1]; peptide 1 mM", "result": "significantly higher"}]}, {"substance": "YQKFPQYL (peptide 7) [SEQ ID NO: 7, peptide fragment found in both micellar casein hydrolysate and casein hydrolysate, synthesized]", "values": [{"measurement": "GLP-1 secretion stimulating activity on GLUTag cells, ratio to blank group", "setting": "GLUTag cells [1]; [3]", "result": 160.8, "unit": "%"}, {"measurement": "GLP-1 secretion stimulating activity on GLUTag cells, ratio to blank group", "setting": "GLUTag cells [1]; [4]", "result": 87.1, "unit": "%"}]}, {"substance": "κ-Casein: κ-casein from bovine milk (from Sigma-Aldrich)", "values": [{"measurement": "GLP-1 secretion stimulating activity on GLUTag cells, ratio to blank group", "setting": "GLUTag cells [2]; Table 3, non-degraded, 0.5 mg/ml", "result": "115.6 (c) %"}, {"measurement": "GLP-1 secretion stimulating activity on GLUTag cells, ratio to blank group", "setting": "GLUTag cells [2]; Table 3, non-degraded, 5 mg/ml", "result": "176.5 (b) %"}, {"measurement": "GLP-1 secretion stimulating activity on GLUTag cells, ratio to blank group", "setting": "GLUTag cells [2]; Table 3, pep + pan30, 0.5 mg/ml", "result": "140.9 (c) %"}, {"measurement": "GLP-1 secretion stimulating activity on GLUTag cells, ratio to blank group", "setting": "GLUTag cells [2]; Table 3, pep + pan30, 5 mg/ml", "result": "225.2 (b) %"}, {"measurement": "GLP-1 secretion stimulating activity on GLUTag cells, ratio to blank group", "setting": "GLUTag cells [2]; Table 3, pep + pan60, 0.5 mg/ml", "result": "149.2 (b) %"}, {"measurement": "GLP-1 secretion stimulating activity on GLUTag cells, ratio to blank group", "setting": "GLUTag cells [2]; Table 3, pep + pan60, 5 mg/ml", "result": "216.2 (b) %"}, {"measurement": "GLP-1 secretion stimulating activity on GLUTag cells, ratio to blank group", "setting": "GLUTag cells [2]; Table 3, pep only, 0.5 mg/ml", "result": "150.5 (c) %"}, {"measurement": "GLP-1 secretion stimulating activity on GLUTag cells, ratio to blank group", "setting": "GLUTag cells [2]; Table 3, pep only, 5 mg/ml", "result": "261.8 (b) %"}]}]}
